#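 These data come from cells grown in 96-well plates and exposed to compound for 48 hours at five concentrations. At the TGI there is no net growth.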
# Key:
# Experiment in all cases: DTP human tumour cell line panel, 48 h
# 786-0 renal = test system: 786-0 renal
# A498 renal = test system: A498 renal
# A549 NSCLC = test system: A549 NSCLC
# BT-549 breast = test system: BT-549 breast
# CAKI-1 renal = test system: CAKI-1 renal
# CCRF-CEM leukemia = test system: CCRF-CEM leukemia
# COLO 205 colon = test system: COLO 205 colon
# DU-145 prostate = test system: DU-145 prostate
# EKVX NSCLC = test system: EKVX NSCLC
# HCC-2998 colon = test system: HCC-2998 colon
# HCT-116 colon = test system: HCT-116 colon
# HCT-15 colon = test system: HCT-15 colon
# HOP-62 NSCLC = test system: HOP-62 NSCLC
# IGROV1 ovarian = test system: IGROV1 ovarian
# K-562 leukemia = test system: K-562 leukemia
# M14 melanoma = test system: M14 melanoma
# MALME-3M melanoma = test system: MALME-3M melanoma
# MCF7 breast = test system: MCF7 breast
# MDA-MB-231 breast = test system: MDA-MB-231 breast
# MDA-MB-435 = test system: MDA-MB-435
# MDA-N = test system: MDA-N
# MOLT-4 leukemia = test system: MOLT-4 leukemia
# NCI-H23 lung = test system: NCI-H23 lung
# NCI-H460 lung = test system: NCI-H460 lung
# NCI-H522 lung = test system: NCI-H522 lung
# OVCAR-3 ovarian = test system: OVCAR-3 ovarian
# OVCAR-4 ovarian = test system: OVCAR-4 ovarian
# OVCAR-5 ovarian = test system: OVCAR-5 ovarian
# PC-3 prostate = test system: PC-3 prostate
# RXF 393 renal = test system: RXF 393 renal
# SF-295 CNS = test system: SF-295 CNS
# SF-539 CNS = test system: SF-539 CNS
# SK-MEL-2 melanoma = test system: SK-MEL-2 melanoma
# SK-MEL-5 melanoma = test system: SK-MEL-5 melanoma
# SK-OV-3 ovarian = test system: SK-OV-3 ovarian
# SN12C renal = test system: SN12C renal
# SR leukemia = test system: SR leukemia
# T-47D breast = test system: T-47D breast
# TK-10 renal = test system: TK-10 renal
# U251 CNS = test system: U251 CNS
# UACC-257 melanoma = test system: UACC-257 melanoma
# UACC-62 melanoma = test system: UACC-62 melanoma
# ACHN renal = test system: ACHN renal
# HL-60(TB) leukemia = test system: HL-60(TB) leukemia
# HOP-92 NSCLC = test system: HOP-92 NSCLC
# HS 578T breast = test system: HS 578T breast
# HT29 colon = test system: HT29 colon
# KM12 colon = test system: KM12 colon
# NCI-H226 lung = test system: NCI-H226 lung
# NCI/ADR-RES ovarian = test system: NCI/ADR-RES ovarian
# OVCAR-8 ovarian = test system: OVCAR-8 ovarian
# SF-268 CNS = test system: SF-268 CNS
# SK-MEL-28 melanoma = test system: SK-MEL-28 melanoma
# SNB-19 CNS = test system: SNB-19 CNS
# SNB-75 CNS = test system: SNB-75 CNS
# SW-620 colon = test system: SW-620 colon
# LOX IMVI melanoma = test system: LOX IMVI melanoma
# RPMI-8226 leukemia = test system: RPMI-8226 leukemia
# UO-31 renal = test system: UO-31 renal
structure (smiles),measurement,setting,value
CCCc1n[nH]c(=O)n1N1C(=O)C=CC1=O,TGI,786-0 renal,> 100 µM
same,TGI,A498 renal,> 100 µM
same,TGI,A549 NSCLC,> 100 µM
same,TGI,BT-549 breast,> 100 µM
same,TGI,CAKI-1 renal,> 100 µM
same,TGI,CCRF-CEM leukemia,> 100 µM
same,TGI,COLO 205 colon,> 100 µM
same,TGI,DU-145 prostate,> 100 µM
same,TGI,EKVX NSCLC,> 100 µM
same,TGI,HCC-2998 colon,> 100 µM
same,TGI,HCT-116 colon,> 100 µM
same,TGI,HCT-15 colon,> 100 µM
same,TGI,HOP-62 NSCLC,> 100 µM
same,TGI,IGROV1 ovarian,> 100 µM
same,TGI,K-562 leukemia,> 100 µM
same,TGI,M14 melanoma,> 100 µM
same,TGI,MALME-3M melanoma,> 100 µM
same,TGI,MCF7 breast,> 100 µM
same,TGI,MDA-MB-231 breast,> 100 µM
same,TGI,MDA-MB-435,> 100 µM
same,TGI,MDA-N,> 100 µM
same,TGI,MOLT-4 leukemia,> 100 µM
same,TGI,NCI-H23 lung,> 100 µM
same,TGI,NCI-H460 lung,> 100 µM
same,TGI,NCI-H522 lung,> 100 µM
same,TGI,OVCAR-3 ovarian,> 100 µM
same,TGI,OVCAR-4 ovarian,> 100 µM
same,TGI,OVCAR-5 ovarian,> 100 µM
same,TGI,PC-3 prostate,> 100 µM
same,TGI,RXF 393 renal,> 100 µM
same,TGI,SF-295 CNS,> 100 µM
same,TGI,SF-539 CNS,> 100 µM
same,TGI,SK-MEL-2 melanoma,> 100 µM
same,TGI,SK-MEL-5 melanoma,> 100 µM
same,TGI,SK-OV-3 ovarian,> 100 µM
same,TGI,SN12C renal,> 100 µM
same,TGI,SR leukemia,> 100 µM
same,TGI,T-47D breast,> 100 µM
same,TGI,TK-10 renal,> 100 µM
same,TGI,U251 CNS,> 100 µM
same,TGI,UACC-257 melanoma,> 100 µM
same,TGI,UACC-62 melanoma,> 100 µM
c1ccc2[nH]c3c(N=NC4=NCCN4)c4ccccc4c-3nc2c1,TGI,786-0 renal,22.4 µM
same,TGI,A549 NSCLC,16.8 µM
same,TGI,ACHN renal,> 100 µM
same,TGI,BT-549 breast,41.9 µM
same,TGI,CCRF-CEM leukemia,> 100 µM
same,TGI,DU-145 prostate,> 100 µM
same,TGI,EKVX NSCLC,33.3 µM
same,TGI,HCC-2998 colon,14.9 µM
same,TGI,HCT-116 colon,13.4 µM
same,TGI,HCT-15 colon,15.8 µM
same,TGI,HL-60(TB) leukemia,> 100 µM
same,TGI,HOP-62 NSCLC,39.3 µM
same,TGI,HOP-92 NSCLC,20.4 µM
same,TGI,HS 578T breast,> 100 µM
same,TGI,HT29 colon,2.7 µM
same,TGI,IGROV1 ovarian,> 100 µM
same,TGI,K-562 leukemia,> 100 µM
same,TGI,KM12 colon,15.8 µM
same,TGI,M14 melanoma,20.4 µM
same,TGI,MALME-3M melanoma,24.1 µM
same,TGI,MCF7 breast,11.4 µM
same,TGI,MDA-MB-231 breast,32.4 µM
same,TGI,MDA-MB-435,21.8 µM
same,TGI,MDA-N,20.7 µM
same,TGI,MOLT-4 leukemia,> 100 µM
same,TGI,NCI-H226 lung,23.7 µM
same,TGI,NCI-H23 lung,23.3 µM
same,TGI,NCI-H460 lung,7.81 µM
same,TGI,NCI-H522 lung,17.3 µM
same,TGI,NCI/ADR-RES ovarian,20.1 µM
same,TGI,OVCAR-3 ovarian,30.2 µM
same,TGI,OVCAR-4 ovarian,> 100 µM
same,TGI,OVCAR-8 ovarian,9.39 µM
same,TGI,RXF 393 renal,14.3 µM
same,TGI,SF-268 CNS,> 100 µM
same,TGI,SF-295 CNS,12.2 µM
same,TGI,SF-539 CNS,20.2 µM
same,TGI,SK-MEL-28 melanoma,27.2 µM
same,TGI,SK-MEL-5 melanoma,15.9 µM
same,TGI,SN12C renal,> 100 µM
same,TGI,SNB-19 CNS,68.9 µM
same,TGI,SNB-75 CNS,16.4 µM
same,TGI,SR leukemia,> 100 µM
same,TGI,SW-620 colon,13.6 µM
same,TGI,T-47D breast,> 100 µM
same,TGI,TK-10 renal,66.6 µM
same,TGI,U251 CNS,19.7 µM
same,TGI,UACC-257 melanoma,36.5 µM
same,TGI,UACC-62 melanoma,21.1 µM
O=C(/C=C/c1ccc(OCc2ccccc2)cc1)NCc1ccc(C(=O)NCc2ccccc2)cc1,TGI,786-0 renal,> 100 µM
same,TGI,A498 renal,> 100 µM
same,TGI,A549 NSCLC,> 100 µM
same,TGI,ACHN renal,> 100 µM
same,TGI,BT-549 breast,> 100 µM
same,TGI,CAKI-1 renal,> 100 µM
same,TGI,CCRF-CEM leukemia,> 100 µM
same,TGI,COLO 205 colon,> 100 µM
same,TGI,DU-145 prostate,> 100 µM
same,TGI,EKVX NSCLC,> 100 µM
same,TGI,HCC-2998 colon,> 100 µM
same,TGI,HCT-116 colon,> 100 µM
same,TGI,HCT-15 colon,> 100 µM
same,TGI,HOP-62 NSCLC,> 100 µM
same,TGI,HOP-92 NSCLC,> 100 µM
same,TGI,HS 578T breast,> 100 µM
same,TGI,HT29 colon,> 100 µM
same,TGI,IGROV1 ovarian,> 100 µM
same,TGI,K-562 leukemia,> 100 µM
same,TGI,KM12 colon,> 100 µM
same,TGI,LOX IMVI melanoma,> 100 µM
same,TGI,M14 melanoma,> 100 µM
same,TGI,MALME-3M melanoma,> 100 µM
same,TGI,MCF7 breast,> 100 µM
same,TGI,MDA-MB-231 breast,> 100 µM
same,TGI,MDA-MB-435,> 100 µM
same,TGI,MDA-N,> 100 µM
same,TGI,MOLT-4 leukemia,> 100 µM
same,TGI,NCI-H226 lung,> 100 µM
same,TGI,NCI-H23 lung,> 100 µM
same,TGI,NCI-H460 lung,> 100 µM
same,TGI,NCI-H522 lung,> 100 µM
same,TGI,NCI/ADR-RES ovarian,> 100 µM
same,TGI,OVCAR-3 ovarian,> 100 µM
same,TGI,OVCAR-4 ovarian,> 100 µM
same,TGI,OVCAR-5 ovarian,> 100 µM
same,TGI,OVCAR-8 ovarian,> 100 µM
same,TGI,PC-3 prostate,> 100 µM
same,TGI,RPMI-8226 leukemia,> 100 µM
same,TGI,RXF 393 renal,> 100 µM
same,TGI,SF-268 CNS,> 100 µM
same,TGI,SF-295 CNS,> 100 µM
same,TGI,SF-539 CNS,> 100 µM
same,TGI,SK-MEL-2 melanoma,> 100 µM
same,TGI,SK-MEL-28 melanoma,> 100 µM
same,TGI,SK-MEL-5 melanoma,> 100 µM
same,TGI,SK-OV-3 ovarian,> 100 µM
same,TGI,SN12C renal,> 100 µM
same,TGI,SNB-19 CNS,> 100 µM
same,TGI,SNB-75 CNS,> 100 µM
same,TGI,SR leukemia,> 100 µM
same,TGI,SW-620 colon,> 100 µM
same,TGI,T-47D breast,> 100 µM
same,TGI,TK-10 renal,> 100 µM
same,TGI,U251 CNS,> 100 µM
same,TGI,UACC-257 melanoma,> 100 µM
same,TGI,UACC-62 melanoma,> 100 µM
same,TGI,UO-31 renal,> 100 µM
N/C(=N\S(=O)(=O)c1ccc(-c2ccccn2)s1)Nc1ccc(Cl)cc1,TGI,786-0 renal,29.4 µM
same,TGI,A498 renal,25.8 µM
same,TGI,A549 NSCLC,47.2 µM
same,TGI,ACHN renal,33.6 µM
same,TGI,BT-549 breast,32.6 µM
same,TGI,CAKI-1 renal,24.9 µM
same,TGI,COLO 205 colon,35.9 µM
same,TGI,DU-145 prostate,34.3 µM
same,TGI,EKVX NSCLC,26 µM
same,TGI,HCT-116 colon,31 µM
same,TGI,HCT-15 colon,38 µM
same,TGI,HOP-62 NSCLC,39.2 µM
same,TGI,HOP-92 NSCLC,28.9 µM
same,TGI,HS 578T breast,59.6 µM
same,TGI,HT29 colon,35.2 µM
same,TGI,IGROV1 ovarian,34.1 µM
same,TGI,K-562 leukemia,66.2 µM
same,TGI,KM12 colon,70.4 µM
same,TGI,LOX IMVI melanoma,33.5 µM
same,TGI,M14 melanoma,33.6 µM
same,TGI,MALME-3M melanoma,33.4 µM
same,TGI,MCF7 breast,34.4 µM
same,TGI,MDA-MB-231 breast,27.9 µM
same,TGI,MDA-N,19.6 µM
same,TGI,MOLT-4 leukemia,5.61 µM
same,TGI,NCI-H226 lung,35.8 µM
same,TGI,NCI-H23 lung,33.2 µM
same,TGI,NCI-H460 lung,34.8 µM
same,TGI,NCI-H522 lung,24.4 µM
same,TGI,NCI/ADR-RES ovarian,43.5 µM
same,TGI,OVCAR-3 ovarian,67.6 µM
same,TGI,OVCAR-4 ovarian,37.7 µM
same,TGI,OVCAR-5 ovarian,40.2 µM
same,TGI,OVCAR-8 ovarian,37.6 µM
same,TGI,PC-3 prostate,27.3 µM
same,TGI,RPMI-8226 leukemia,84.5 µM
same,TGI,RXF 393 renal,35.3 µM
same,TGI,SF-268 CNS,36.6 µM
same,TGI,SF-295 CNS,40.3 µM
same,TGI,SF-539 CNS,29.7 µM
same,TGI,SK-MEL-2 melanoma,27.4 µM
same,TGI,SK-MEL-28 melanoma,37.8 µM
same,TGI,SK-MEL-5 melanoma,30.6 µM
same,TGI,SK-OV-3 ovarian,47.9 µM
same,TGI,SN12C renal,30.3 µM
same,TGI,SNB-19 CNS,31.5 µM
same,TGI,SNB-75 CNS,45.7 µM
same,TGI,SR leukemia,53.1 µM
same,TGI,SW-620 colon,45.1 µM
same,TGI,T-47D breast,45.6 µM
same,TGI,TK-10 renal,32.1 µM
same,TGI,U251 CNS,28.6 µM
same,TGI,UACC-257 melanoma,21.1 µM
same,TGI,UACC-62 melanoma,26.4 µM
same,TGI,UO-31 renal,34.9 µM

# — PubChem BioAssay (NCI)
